Data taken from article PMC7180739, “Aggregation and Molecular Properties of β-Glucosidase Isoform II in Chayote (Sechium edule)” (Molecules, 2020).

System: T1, β-glucosidase isoform II (β-glucosidase II, Sebg)
T1 construct: native, purified from fruit epicarp and mesocarp
Assay: p-nitrophenol release, nonlinear regression
Type: biochemical, Sechium edule
Settings: 40 °C, 0.2 M sodium citrate pH 5.0 (pH 5.5)
Excerpt: p-nitrophenol release, nonlinear regression on β-glucosidase isoform II (β-glucosidase II, Sebg)

| Km | SMILES |
| --- | --- |
| 16.1 ± 2.62 mM | C[C@H]1O[C@@H](Oc2ccc([N+](=O)[O-])cc2)[C@H](O)[C@@H](O)[C@H]1O [pNPFuc, p-Nitrophenyl-β-D-fucopyranoside] |
| 5.72 ± 0.45 mM | O=[N+]([O-])c1ccc(O[C@@H]2O[C@H](CO)[C@H](O)[C@H](O)[C@H]2O)cc1 [pNPGal, p-Nitrophenyl-β-D-galactopyranoside] |
| 4.59 ± 0.49 mM | O=[N+]([O-])c1ccc(O[C@@H]2O[C@H](CO)[C@@H](O)[C@H](O)[C@H]2O)cc1 [pNPGlc, p-Nitrophenyl-β-D-glucopyranoside] |
